Measured values taken from patent US20040176339A1, “Antineoplastic combinations” (Wyeth, priority 2003, published 2004).

Tests used:
[1] = Clinical trial of CCI-779 plus letrozole: safety/tolerability
Method: (§1) The combination of CCI-779 and letrozole in postmenopausal women with locally advanced or metastatic breast cancer is being evaluated in this clinical trial.
(§2) Randomization is in a 1:1:1 ratio (˜30 evaluable pts/arm), letrozole alone: letrozole with CCI daily (CCI daily arm): letrozole with CCI daily for 5 days every 2 weeks (CCI intermittent arm). All pts receive 2.5 mg letrozole daily.
(§3) Thus, the protocol was amended and doses were reduced to low dose (LD) schedules, 10 mg CCI daily and 30 mg CCI intermittent. As of 1 Dec.

[2] = test system: locally advanced or metastatic breast cancer; assay: Clinical trial of CCI-779 plus letrozole: preliminary tumor responses (RECIST); assay type: in vivo, postmenopausal women; conditions: for pts with SD 24 wk: CCI pts on HD schedules, letrozole-alone pts; for partial responses (RECIST): evaluable pts: CCI n=13 (responders on HD schedules), letrozole alone n=6; for stable disease (RECIST): evaluable pts: CCI n=13, letrozole alone n=6
Method: as §1, §2, §3

[3] = Stability of CCI-779 in parenteral cosolvent formulation; assay type: physicochemical; conditions: citric acid at a concentration of less than 0.01% w/v
Text: In this embodiment, the stability of CCI-779 in parenterally acceptable alcoholic cosolvents is enhanced by addition of an antioxidant to the formulation. Acceptable antioxidants include, but are not limited to, citric acid, d,l-α-tocopherol, BHA, BHT, monothioglycerol, ascorbic acid, propyl gallate, and mixtures thereof. Generally, the parenteral formulations useful in this embodiment of the invention will contain an antioxidant component(s) in a concentration ranging from 0.001% to 1% w/v, or 0.01% to 0.5% w/v, of the cosolvent concentrate, although lower or higher concentrations may be desired. Of the antioxidants, d,l-α-tocopherol is particularly desirable and is used at a concentration of 0.01 to 0.1% w/v with a preferred concentration of 0.075% w/v of the cosolvent concentrate.
Examples of such chelating agents include, e.g., citric acid, acetic acid, and ascorbic acid (which may function as both a classic antioxidant and a chelating agent in the present formulations). Other chelating agents include such materials as are capable of binding metal ions in solution, such as ethylene diamine tetra acetic acid (EDTA), its salts, or amino acids such as glycine are capable of enhancing the stability of CCI-779. […] Optimal concentrations for the selected antioxidant(s) can be readily determined by one of skill in the art, based upon the information provided herein.

[4] = test system: histologically diverse tumor cells; conditions: cited from earlier work
[5] = test system: human tumor xenografts; conditions: nude mice, cited from earlier work
[6] = test system: human glioblastoma cell line; conditions: in vitro; cited from earlier work

Row | SMILES | patients with toxicity that resulted in dose delay/reduction or discontinuation ([1]; female, human, in vivo) | stable disease, pts on HD schedules ([2]; CCI HD schedules (25 mg daily / 75 mg intermittent) with letrozole) | stable disease, pts on LD schedules ([2]; CCI LD schedules (10 mg daily / 30 mg intermittent) with letrozole) | pts with SD 24 wk [2] | complete response (RECIST) ([2]; evaluable CCI pts n=13, responder on HD schedule) | partial responses (RECIST) [2] | stable disease (RECIST) [2] | stability of CCI-779 in formulation [3] | growth of tumor cells in vitro ([4]; CNS cancer, leukemia (T-cell), breast cancer, prostate cancer and melanoma lines among the most sensitive) | cell cycle effect ([4]; in vitro tumor cells) | activity in orthotopic glioma model [5] | activity against human tumor xenografts ([5]; diverse histological types, gliomas particularly sensitive) | growth of human pancreatic tumors and breast cancer lines in vivo ([5]; several human pancreatic tumors, one of two breast cancer lines) | growth factor (platelet-derived)-induced stimulation of glioblastoma cells [6] | grade 3-4 toxicities ([1]; letrozole alone 2.5 mg daily, 12 pts)
1 | CO[C@H]1C[C@@H]2CC[C@@H](C)[C@@](O)(O2)C(=O)C(=O)N2CCCC[C@H]2C(=O)O[C@H]([C@H](C)C[C@@H]2CC[C@@H](OC(=O)C(C)(CO)CO)[C@H](OC)C2)CC(=O)[C@H](C)/C=C(\C)[C@@H](O)[C@@H](OC)C(=O)[C@H](C)C[C@H](C)/C=C/C=C/C=C/1C [CCI-779, Rapamycin 42-ester with 3-hydroxy-2-(hydroxymethyl)-2-methylpropionic acid] | 3 patients | 6 pts | 3 pts | 4 pts | 1 pts | 3 pts | 9 pts | enhanced the stability | inhibit the growth | arrested cells in the G1 phase | active | has activity against human tumor xenografts | inhibited | markedly suppressed | 
2 | N#Cc1ccc(C(c2ccc(C#N)cc2)n2cncn2)cc1 [letrozole, reference compound] |  |  |  | 1 pts |  | 2 pts | 4 pts |  |  |  |  |  |  |  | No grade 3-4 toxicities
